Reference: US9901582B2, “Polymorphisms in ABCB1 associated with a lack of clinical response to medicaments” (Max-Planck-Gesellschaft zur Förderung der Wisenschaften e. …, priority 2007, dated 2018)
Read-outs that look alike come from different tables or passages of the source.

Experiments:
[1] = target: ABCB1 (Homo sapiens, UniProt P08183); settings: cited from earlier work; for Inducer: inducer of ABCB1
[2] = test system: P-gp; settings: after single administration, same mouse model; cited from earlier work
[3] = test system: ABCB1 gene; settings: human, in vivo
Experimental: The antidepressant plasma concentration was monitored to assure clinically efficient drug levels.
To this end, we created the residuals of linear regression with the dependent variable drug dose or plasma concentration and the independent variables age and gender. These residuals and SNP genotyping data were tested in an ANOVA analysis for statistical differences between the genotypes. Empiric p-values were calculated by applying 10^6 permutations (residuals randomly redistributed over the genotypes). Fisher's product method (FPM) includes the residuals of the dose or plasma concentration variables and the genotype variables from the SNPs rs2235067, rs4148740, rs2032583, rs4148739, rs11983225, rs2235040, rs12720067, rs7787082, rs10248420, rs10280101 and rs2235015.

[4] = test system: P-gp; settings: mouse
[5] = test system: P-gp; assay: Organ and plasma concentrations of antidepressants in abcb1ab(−/−) knockout mice versus FVB/N wild-type controls (blood-organ barrier function); settings: for brain concentrations, times higher in the mutant mice compared to wild-type littermates: 11 days, s.c. osmotic infusion pumps; for cerebrum concentration, abcb1ab (−/−) / kidney concentration, abcb1ab (−/−) / liver concentration, abcb1ab (−/−) / lung concentration, abcb1ab (−/−) / plasma concentration, abcb1ab (−/−) / spleen concentration, abcb1ab (−/−) / testes concentration, abcb1ab (−/−): abcb1ab(−/−) mice; for cerebrum concentration, abcb1ab (−/−) / kidney concentration, abcb1ab (−/−) / liver concentration, abcb1ab (−/−) / lung concentration, abcb1ab (−/−) / plasma concentration, abcb1ab (−/−) / spleen concentration, abcb1ab (−/−) / testes concentration, abcb1ab (−/−) / cerebrum concentration, control / kidney concentration, control / liver concentration, control / lung concentration, control / plasma concentration, control / spleen concentration, control / testes concentration, control: after 11 days s.c. via osmotic pumps; for penetration into the brain (organ/plasma concentration ratio), times higher in animals lacking P-gp than in control animals / ratio (−/−)/(+/+), cerebrum / ratio (−/−)/(+/+), kidney / ratio (−/−)/(+/+), liver / ratio (−/−)/(+/+), lung / ratio (−/−)/(+/+), plasma / ratio (−/−)/(+/+), spleen / ratio (−/−)/(+/+), testes / differences in testes/plasma ratio between knockout and control: 11 days s.c.; for penetration into the brain (organ/plasma concentration ratio), times higher in animals lacking P-gp than in control animals / differences in testes/plasma ratio between knockout and control: FIG. 1; for ratio (−/−)/(+/+), cerebrum: cerebrum concentration; for ratio (−/−)/(+/+), cerebrum / ratio (−/−)/(+/+), kidney / ratio (−/−)/(+/+), liver / ratio (−/−)/(+/+), lung / ratio (−/−)/(+/+), plasma / ratio (−/−)/(+/+), spleen / ratio (−/−)/(+/+), testes: knockout/control; for ratio (−/−)/(+/+), kidney: kidney concentration; for ratio (−/−)/(+/+), liver: liver concentration; for ratio (−/−)/(+/+), lung: lung concentration; for ratio (−/−)/(+/+), plasma: plasma concentration; for ratio (−/−)/(+/+), spleen: spleen concentration; for ratio (−/−)/(+/+), testes: testes concentration; for cerebrum concentration, control / kidney concentration, control / liver concentration, control / lung concentration, control / plasma concentration, control / spleen concentration, control / testes concentration, control: wild-type control mice
[6] = male, FVB/N wild-type, in vivo, sc, 11 days
[7] = male, abcb1ab(−/−) on FVB/N background versus FVB/N wild-type, in vivo, sc, 11 days
[8] = male, abcb1ab(−/−) on FVB/N background, in vivo, sc, 11 days

Sequence of ABCB1 (P08183 whole entry): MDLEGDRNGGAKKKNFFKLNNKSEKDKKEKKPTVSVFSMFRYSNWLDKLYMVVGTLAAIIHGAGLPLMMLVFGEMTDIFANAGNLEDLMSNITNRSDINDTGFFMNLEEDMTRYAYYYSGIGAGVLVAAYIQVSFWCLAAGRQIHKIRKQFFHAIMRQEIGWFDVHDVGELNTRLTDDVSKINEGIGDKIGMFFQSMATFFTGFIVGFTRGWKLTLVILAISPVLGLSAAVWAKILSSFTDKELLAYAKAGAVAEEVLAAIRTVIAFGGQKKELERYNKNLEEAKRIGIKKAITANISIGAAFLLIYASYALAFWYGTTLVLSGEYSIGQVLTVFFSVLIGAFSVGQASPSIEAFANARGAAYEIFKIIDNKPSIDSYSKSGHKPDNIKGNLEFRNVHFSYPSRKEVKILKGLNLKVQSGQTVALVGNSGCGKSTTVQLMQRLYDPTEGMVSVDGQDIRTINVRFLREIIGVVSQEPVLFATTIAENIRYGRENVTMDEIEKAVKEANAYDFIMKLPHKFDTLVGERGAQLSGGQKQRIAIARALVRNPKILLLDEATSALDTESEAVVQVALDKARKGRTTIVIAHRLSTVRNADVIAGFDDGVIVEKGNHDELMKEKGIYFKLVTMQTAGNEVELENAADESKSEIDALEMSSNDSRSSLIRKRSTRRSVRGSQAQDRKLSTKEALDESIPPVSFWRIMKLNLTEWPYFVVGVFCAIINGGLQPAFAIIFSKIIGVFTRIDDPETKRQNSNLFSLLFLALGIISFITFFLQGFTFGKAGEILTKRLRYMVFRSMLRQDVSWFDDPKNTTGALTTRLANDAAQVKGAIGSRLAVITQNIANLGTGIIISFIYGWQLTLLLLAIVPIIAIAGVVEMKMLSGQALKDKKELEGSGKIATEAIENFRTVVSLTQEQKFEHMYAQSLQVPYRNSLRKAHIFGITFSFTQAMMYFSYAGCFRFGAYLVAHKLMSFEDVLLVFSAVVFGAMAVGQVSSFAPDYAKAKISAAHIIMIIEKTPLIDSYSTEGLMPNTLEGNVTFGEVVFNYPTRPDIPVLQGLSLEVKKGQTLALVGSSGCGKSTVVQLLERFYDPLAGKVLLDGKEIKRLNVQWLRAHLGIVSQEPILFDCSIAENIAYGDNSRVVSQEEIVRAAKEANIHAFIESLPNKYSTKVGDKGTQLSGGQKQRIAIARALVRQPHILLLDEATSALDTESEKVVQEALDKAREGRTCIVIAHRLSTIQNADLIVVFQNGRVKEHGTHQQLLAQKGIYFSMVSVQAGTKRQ

Cc1ncc2n1-c1ccc(Cl)cc1C(c1ccccc1F)=NC2 [Midazolam]
Inhibitor [1]: (x)

Fc1ccc([C@@H]2CCNC[C@H]2COc2ccc3c(c2)OCO3)cc1 [Paroxetine]
P-gp substrate status at the blood-brain barrier, earlier studies [2]: substrates of P-gp at the blood-brain barrier

CCc1nn(CCCN2CCN(c3cccc(Cl)c3)CC2)c(=O)n1CCOc1ccccc1 [Nefazodone]
Inducer [1]: (x)

CN(C)CCCC1(c2ccc(F)cc2)OCc2cc(C#N)ccc21 (centres unmarked) [Citalopram]
genotype-dependent differences in plasma levels of patients [3]: small significant difference
cerebrum concentration, control [4, 6]: 158.27 ng/g or ml
kidney concentration, control [4, 6]: 962.29 ng/g or ml
liver concentration, control [4, 6]: 238.02 ng/g or ml
lung concentration, control [4, 6]: 1238.71 ng/g or ml
plasma concentration, control [4, 6]: 106.71 ng/g or ml
spleen concentration, control [4, 6]: 446.96 ng/g or ml
testes concentration, control [4, 6]: 428.19 ng/g or ml
brain concentrations, times higher in the mutant mice compared to wild-type littermates [4, 7]: 3.0 times
cerebrum concentration, abcb1ab (−/−) [4, 8]: 480.93 ng/g or ml
kidney concentration, abcb1ab (−/−) [4, 8]: 795.74 ng/g or ml
liver concentration, abcb1ab (−/−) [4, 8]: 240.33 ng/g or ml
lung concentration, abcb1ab (−/−) [4, 8]: 1238.47 ng/g or ml
plasma concentration, abcb1ab (−/−) [4, 8]: 89.37 ng/g or ml
spleen concentration, abcb1ab (−/−) [4, 8]: 468.29 ng/g or ml
testes concentration, abcb1ab (−/−) [4, 8]: 687.92 ng/g or ml
P-gp substrate status at the BBB [4]: substrates of P-gp at the BBB
P-gp substrate status at the blood-brain barrier, earlier studies [2]: substrates of P-gp at the blood-brain barrier

CN(C)CCC=C1c2ccccc2CCc2ccccc21 [Amitriptyline]
P-gp substrate status at the blood-brain barrier, earlier studies [2]: substrates of P-gp at the blood-brain barrier

COc1ccc(C(CN(C)C)C2(O)CCCCC2)cc1 (centres unmarked) [Venlafaxine]
brain concentrations, times higher in the mutant mice compared to wild-type littermates [5]: 1.7 times
cerebrum concentration, abcb1ab (−/−) [5]: 456.32 ng/g or ml
kidney concentration, abcb1ab (−/−) [5]: 1054.88 ng/g or ml
liver concentration, abcb1ab (−/−) [5]: 323.22 ng/g or ml
lung concentration, abcb1ab (−/−) [5]: 672.59 ng/g or ml
plasma concentration, abcb1ab (−/−) [5]: 70.57 ng/g or ml
spleen concentration, abcb1ab (−/−) [5]: 564.20 ng/g or ml
testes concentration, abcb1ab (−/−) [5]: 842.61 ng/g or ml
penetration into the brain (organ/plasma concentration ratio), times higher in animals lacking P-gp than in control animals [5]: 1.8 times
ratio (−/−)/(+/+), cerebrum [5]: 1.7
ratio (−/−)/(+/+), kidney [5]: 1.0
ratio (−/−)/(+/+), liver [5]: 1.0
ratio (−/−)/(+/+), lung [5]: 0.9
ratio (−/−)/(+/+), plasma [5]: 1.0
ratio (−/−)/(+/+), spleen [5]: 1.0
ratio (−/−)/(+/+), testes [5]: 1.2
differences in testes/plasma ratio between knockout and control [5]: smaller but still significant differences
P-gp substrate status at the BBB ([5]; this study, administration over 11 days): substrates of P-gp at the BBB
cerebrum concentration, control [5]: 261.14 ng/g or ml
kidney concentration, control [5]: 1035.27 ng/g or ml
liver concentration, control [5]: 314.59 ng/g or ml
lung concentration, control [5]: 747.38 ng/g or ml
plasma concentration, control [5]: 71.37 ng/g or ml
spleen concentration, control [5]: 581.95 ng/g or ml
testes concentration, control [5]: 715.92 ng/g or ml
P-gp substrate status at the blood-brain barrier, earlier studies [2]: substrates of P-gp at the blood-brain barrier

O=c1n(CCCN2CCN(c3cccc(Cl)c3)CC2)nc2ccccn12 [Trazodone]
Inducer [1]: (x)

CCN(CC)CCCC(C)Nc1ccnc2cc(Cl)ccc12 (centres unmarked) [Chloroquine]
Inhibitor ([1]; inhibitor of ABCB1): (x)

O=C(CCCN1CCC(O)(c2ccc(Cl)cc2)CC1)c1ccc(F)cc1 [Haloperidol]
Inhibitor ([1]; inhibitor of ABCB1): (x)

CN1CCN2c3ncccc3Cc3ccccc3C2C1 (centres unmarked) [Mirtazapine]
cerebrum concentration, control [4, 6]: 34.90 ng/g or ml
intestine concentration, control [4, 6]: 19.96 ng/g or ml
kidney concentration, control [4, 6]: 70.93 ng/g or ml
liver concentration, control [4, 6]: 12.39 ng/g or ml
lung concentration, control [4, 6]: 61.47 ng/g or ml
plasma concentration, control [4, 6]: 7.66 ng/g or ml
spleen concentration, control [4, 6]: 67.54 ng/g or ml
testes concentration, control [4, 6]: 61.22 ng/g or ml
ratio (−/−)/(+/+), cerebrum [4, 7]: 1.5
ratio (−/−)/(+/+), intestine [4, 7]: 1.2
ratio (−/−)/(+/+), kidney [4, 7]: 1.3
ratio (−/−)/(+/+), liver [4, 7]: 1.7
ratio (−/−)/(+/+), lung [4, 7]: 1.7
ratio (−/−)/(+/+), plasma [4, 7]: 1.5
ratio (−/−)/(+/+), spleen [4, 7]: 1.3
ratio (−/−)/(+/+), testes [4, 7]: 1.8
cerebrum concentration, abcb1ab (−/−) [4, 8]: 51.31 ng/g or ml
intestine concentration, abcb1ab (−/−) [4, 8]: 24.58 ng/g or ml
kidney concentration, abcb1ab (−/−) [4, 8]: 91.22 ng/g or ml
liver concentration, abcb1ab (−/−) [4, 8]: 20.59 ng/g or ml
lung concentration, abcb1ab (−/−) [4, 8]: 105.36 ng/g or ml
plasma concentration, abcb1ab (−/−) [4, 8]: 11.17 ng/g or ml
spleen concentration, abcb1ab (−/−) [4, 8]: 86.19 ng/g or ml
testes concentration, abcb1ab (−/−) [4, 8]: 110.29 ng/g or ml
P-gp substrate status at the BBB [4]: not influenced by P-gp
differences in testes/plasma ratio between knockout and control ([4]; in vivo, sc): not

CN(C)CC(c1ccc(O)cc1)C1(O)CCCCC1 [D-Venlafaxine, O-desmethyl venlafaxine]
brain concentrations, times higher in the mutant mice compared to wild-type littermates [5]: 4.1 times
cerebrum concentration, abcb1ab (−/−) [5]: 36.99 ng/g or ml
kidney concentration, abcb1ab (−/−) [5]: 127.32 ng/g or ml
liver concentration, abcb1ab (−/−) [5]: 88.22 ng/g or ml
lung concentration, abcb1ab (−/−) [5]: 44.91 ng/g or ml
plasma concentration, abcb1ab (−/−) [5]: 5.98 ng/g or ml
spleen concentration, abcb1ab (−/−) [5]: 33.80 ng/g or ml
testes concentration, abcb1ab (−/−) [5]: 39.19 ng/g or ml
penetration into the brain (organ/plasma concentration ratio), times higher in animals lacking P-gp than in control animals [5]: 3.6 times
ratio (−/−)/(+/+), cerebrum [5]: 4.1
ratio (−/−)/(+/+), kidney [5]: 1.2
ratio (−/−)/(+/+), liver [5]: 1.1
ratio (−/−)/(+/+), lung [5]: 0.9
ratio (−/−)/(+/+), plasma [5]: 1.1
ratio (−/−)/(+/+), spleen [5]: 1.1
ratio (−/−)/(+/+), testes [5]: 1.3
differences in testes/plasma ratio between knockout and control [5]: smaller but still significant differences
cerebrum concentration, control [5]: 8.97 ng/g or ml
kidney concentration, control [5]: 107.88 ng/g or ml
liver concentration, control [5]: 83.15 ng/g or ml
lung concentration, control [5]: 50.63 ng/g or ml
plasma concentration, control [5]: 5.50 ng/g or ml
spleen concentration, control [5]: 29.42 ng/g or ml
testes concentration, control [5]: 30.18 ng/g or ml
